For eight molecules, TGI and GI50 results are on record in PubChem BioAssay (NCI).

For orientation: TGI means the concentration giving total growth inhibition. Read a high TGI as less potent growth arrest. The GI50 is the concentration that inhibits growth by half.

Experiment in all cases: DTP human tumour cell line panel, 48 h
In assay [1] the test system is M14 melanoma.
Assay [2] relates to SK-MEL-5 melanoma.
Assay [3] relates to EKVX NSCLC.
The test system of assay [4] is UACC-62 melanoma.
Assay [5] concerns DU-145 prostate.
For assay [6], the system named is HS 578T breast.
For assay [7], the system named is MOLT-4 leukemia.
Assay [8] deals with SNB-75 CNS.
The subject of assay [9] is CCRF-CEM leukemia.
Assay [10] has as its system COLO 205 colon.

Values joined by “and” are separate entries in the source; they are usually repeats but may differ in a detail not shown here. Equal values may be shown once.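 Exposure lasted 48 hours, with cells grown in 96-well plates and compounds tested at five concentrations. GI50 = concentration required for 50% inhibition of growth. At the TGI there is no net growth.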

Take `COC(=O)C1(C)CC2C(C)(CCC3(C)C4=CC=C5C(=CC(=O)C(O)=C5C)C4(C)CCC23C)CC1O` (centres undefined): the TGI in assay [1] was determined as 3.26 µM; in [2], 3.28 µM; in assay [3], 2.7 µM; in assay [4] it was 2.32 µM; in assay [5], 2.71 µM; in assay [6] it was 14.4 µM. In addition, the TGI turned out to be 0.931 µM in assay [7], 3.54 µM in [8], 0.538 µM in [9] and 1.72 µM in assay [10].

Take `Nc1cc(C(F)(F)F)c(-c2cc(N3CCOCC3)nc(N3CCOCC3)n2)cn1`: the GI50 in [1] was 0.669 µM and 0.644 µM; in assay [2], 0.797 µM and 0.587 µM; in assay [3], 0.721 µM and 1.22 µM; in assay [4], 0.318 µM and 0.375 µM; in assay [5], 1.22 µM and 1.79 µM; in assay [6], 0.313 µM and 0.522 µM. The GI50 is 0.883 µM and 0.814 µM in [7]; 0.179 µM and 0.377 µM in assay [8]; 1.56 µM and 1.49 µM in [9]; 0.629 µM and 1.25 µM in assay [10]. Moreover, the TGI in assay [1] was 4.04 µM and 3.88 µM; in [2], 3.05 µM and 2.56 µM; in [4], 1.99 µM and 2.92 µM; in assay [5] it was 9.96 µM and > 33.1 µM; in [6] it was 1.55 µM and 5.2 µM; in [7] it was over 100 µM. Moreover, the concentration for total growth inhibition (TGI) in [8] is 1.46 µM and 2.02 µM; in assay [9], over 100 µM; in assay [10], 2.8 µM and 3.42 µM.

Take `CCN(CC)CCN1C(=O)C2C3C(=O)CC(C)(CC3C)C2C1=O` (centres undefined): the GI50 in assay [1], in [2], in assay [3], in assay [4], in assay [5] and in assay [6] was over 100 µM each time. For the same molecule, the GI50 in assay [7], in assay [8], in assay [9] and in assay [10] was over 100 µM in each case. Also, the concentration for total growth inhibition (TGI) in assay [1], in [2], in [3], in [4], in assay [5] and in assay [6] was over 100 µM in each case. Also, the TGI in assay [7], in assay [8], in assay [9] and in assay [10] was over 100 µM throughout.

`CCN(CC)c1ccc2nc3c4ccccc4c(=O)cc-3n(-c3ccccc3)c2c1`: the GI50 in assay [1] is 1.91 µM; in assay [2], 0.444 µM; in assay [3], 1.04 µM; in assay [4], 1.36 µM; in [5], 2.66 µM; in assay [6], 2.37 µM. The GI50 in assay [7] is 2.36 µM; in [8], 2.34 µM; in [9], 2.33 µM; in assay [10] it was 0.353 µM. The TGI in assay [1] is 3.8 µM; in assay [2], 1.74 µM; in [3], 5.85 µM; in assay [4], 4.31 µM; in [5] it was 9.75 µM; in [6], 7.24 µM. The total growth inhibition concentration (TGI) is 7.48 µM in assay [7], 12.7 µM in assay [8], 7.72 µM in assay [9] and 1.59 µM in assay [10].

For the molecule `Cc1ccc(Cl)cc1NC(=O)c1cc2ccccc2cc1O`, the GI50 in assay [1] is 0.325 µM; in assay [2] it was 0.277 µM; in assay [3] it was 0.342 µM; in assay [4], 0.308 µM; in assay [5], 0.479 µM; in [6], 0.304 µM. In addition, the GI50 in [7] was 0.558 µM; in assay [8], 0.52 µM; in assay [9] it was 0.733 µM; in [10] it was 1.7 µM. Also, the TGI in assay [1] is 1.21 µM; in assay [2] it was 0.824 µM; in assay [3], 4.51 µM; in assay [4], 2.65 µM; in assay [5], over 24.7 µM; in assay [6], 1.96 µM. Also, the total growth inhibition concentration (TGI) in assay [7] came to 3.42 µM; in assay [8], 15.3 µM; in assay [9], 2.84 µM; in assay [10], 3.48 µM.

In the case of `CCCCCCCCCC(CCCC(O)CC(=O)O)OC1OC(COC2OC(C)C(OC(C)=O)C(O)C2O)C(O)C(O)C1OC1OC(CO)C(O)C(O)C1OC1OC(C)C(OC(=O)CC(C)C)C(O)C1O` (centres undefined), the GI50 in assay [1], in [2], in [3], in [4], in assay [5] and in assay [6] was over 35 µM in each case. Moreover, the GI50 in assay [7], in [8], in assay [9] and in [10] was over 35 µM each time. In addition, the TGI in [1], in [2], in assay [3], in assay [4], in assay [5] and in assay [6] was over 35 µM each time. Further, the TGI in assay [7], in [8], in assay [9] and in assay [10] was over 35 µM each time.

In the case of `O=CNc1ccc(S(=O)(=O)c2ccc(NC=O)cc2)cc1`, the TGI in assay [1], in assay [2], in [3], in assay [4], in assay [5] and in assay [6] was over 100 µM in each case. Besides, the TGI in [7], in [8], in [9] and in [10] was over 100 µM each time.

For the molecule `COc1ccc(-c2[nH]nc(N)c2-c2cc(OC)c3c(c2)OCO3)cc1`, the GI50 in assay [1] is 2.55 µM; in assay [2], 2.85 µM; in [3], 9.09 µM; in assay [4] it was 4.13 µM; in assay [5], 5.6 µM; in assay [6], 2.01 µM. Further, the GI50 was 3.73 µM in [7], 3.25 µM in assay [8], 3.47 µM in assay [9] and 4.76 µM in [10]. Besides, the TGI is 7.24 µM in assay [1]; 8.97 µM in assay [2]; over 100 µM in [3]; over 100 µM in [4]; over 100 µM in [5]; 5.21 µM in [6]. Moreover, the concentration for total growth inhibition (TGI) was 37.5 µM in assay [7], over 100 µM in assay [8], 38.8 µM in assay [9] and 20 µM in [10].
